Data published in patent US5403840A, “Inclusion complexes of N-ethoxycarbonyl 1-3-morpholino-sydnonimine or salts formed with cyclodextrin-derivatives, preparation thereof and pharmaceutical compositions containing the same” (Chinoin Gyogyszer-Es Vegyeszeti Termekek Gyar Rt., priority 1990, dated 1995).
Values after ≈ are worked out from the molar mass of the structure shown.

Legend:
[1] = oral; cited from earlier work
[2] = compared to the organic nitrates; cited from earlier work
[3] = pH value of 5-7; cited from earlier work
[4] = percutaneous, cited from earlier work
[5] = 25° C.; cited from earlier work
[6] = Membrane permeation test, dialysis profile of Molsidomin-β-CD granule; type: physicochemical; details: Molsidomin 1 mg/ml or equivalent granule, 100% diffusion = 0.33 mg/ml
Description: Visking-type cellophane membrane (average pore diameter 24 angstroms) was used. Aqueous solutions of Molsidomin at a concentration of 1 and 2 mg/ml were put in the donor cell, while distilled water was placed in the receptor compartment of the membrane permeation cell apparatus.
Dialysis profile of Molsidomin-β-CD granule was examined using the same permeation cell as described above.
Molsidomin at a concentration of 1 mg/ml and equivalent amount of complex granule were used in the experiment
100% diffusion corresponding to 0.33 mg/ml Molsidomin concentration in the receptor cell.

[7] = Molsidomin alone, no cyclodextrin; 37 °C; donor 1 and 2 mg/ml
Description: Visking-type cellophane membrane (average pore diameter 24 angstroms) was used. Aqueous solutions of Molsidomin at a concentration of 1 and 2 mg/ml were put in the donor cell, while distilled water was placed in the receptor compartment of the membrane permeation cell apparatus. The solutions were stirred by magnetic stirrers and were kept at 37+1° C. At appropriate time intervals samples were pipetted from the receptor solutions and concentration of Molsidomin permeated from the donor cell was measured by UV-spectrophotometry. The test was repeated in the presence of different cyclodextrins at different concentrations in the donor cell compartment.

angina pectoris = details: cited from earlier work

CCOC(=O)[N-]c1cn(N2CCOCC2)n[o+]1 [Molsidomin, N-ethoxycarbonyl-3-morpholino-sydnonimine]
absorption along the whole Gi-tract [1]: fairly absorbed | bioavailability [1]: satisfactory | habit forming [2]: does not become habit forming | headaches [2]: rarely induces headaches which are also less severe | side-effects [2]: less side-effects | stability in water [3]: stable | bioavailability through the skin ([4]; Molsidomin itself): 4% | resorption through the skin ([4]; Molsidomin itself): resorbed slowly and to a small extent | resorption of Molsidomin relative to propylene-glycol [4]: of similar extent, and of similar quantity | solubility in water [5]: 18 mg/mL (≈ 74.3 mM) | Concentration of Molsidomin in the receptor cell ([6]; 1 hour): 200 µg/mL | Concentration of Molsidomin in the receptor cell ([6]; 2 hours): 290 µg/mL | Concentration of Molsidomin in the receptor cell ([6]; 3 hours): 320 µg/mL | Concentration of Molsidomin in the receptor cell ([6]; 4 hours): 340 µg/mL | Diffusion half life (T 50%) of Molsidomin [7]: 1.0 h | duration of effect compared to the organic nitrates (angina pectoris; compared to the organic nitrates): more lasting | duration of effect of oral preparation (angina pectoris; oral, 2 mg of the active ingredient): 3 to 5 h
